# Laboratory results from patent US20130202659A1, “POLYMER-AGENT CONJUGATES, PARTICLES, COMPOSITIONS, AND RELATED METHODS OF USE” (CERULEAN PHARMA INC., priority 2012, published 2013).
# Key:
# HCT-116 tumor = assay: In vivo efficacy, HCT-116 colon xenograft model (Example 44); set-up: species or system human (in CD-1 nude mice); conditions: 30 mg/kg IV weekly×2
# Procedure: HCT-116 cells were grown in culture to confluency in McCoy's 5a medium containing 10% FBS and 1% penicillin/streptomycin and then resuspended in McCoy's 5a (passage 4). This suspension of HCT-116 cells (density=3.7×10^6 cells/mL) was implanted subcutaneously above the right hind leg of male CD-1 nude mice on day 1.
# [1] = Tolerability in H1299 tumor-bearing mice (Example 60); format: in vivo, mouse
# Procedure: (§1) The treatments were administered IV into the tail vein at a dose volume of 10 and 20 mL/kg for 30 and 60 mg/kg respectively, beginning on post-implantation day 30 when the mean tumor volume was ca. 170 mm^3 (small tumor group), and on day 37 when the mean tumor volume was ca. 440 mm^3 (large tumor group). Body weight and tumor volume were measured for three times a week during the dosing period and twice a week thereafter. In addition, animals were also monitored for any morbidity and adverse effects for three times a week during the dosing period and twice a week thereafter.
# Tumor volume was calculated with (width×width×length)/2 mm^3 formula. Efficacy was determined by tumor growth inhibition (TGI), tumor growth delay (TGD) and survival. Tumor growth inhibition (TGI) is represented as % and calculated as (1−(treated tumor volume/control tumor volume))×100 when the control group mean tumor volume reached ≧1000 mm^3. Tumor growth delay (TGD) is calculated by subtracting the day when the vehicle treated group reached the maximum tumor size 1000 mm^3 from the day when the treatment group tumor size reached 1000 mm^3.
# [2] = weekly schedule, 3 injections; cited from earlier work
# H1299 tumor = assay: Efficacy in non-small cell lung carcinoma model H1299 (Example 60); format: in vivo, nu/nu mice; conditions: large tumor group, 30 mg/kg
# Procedure: H1299 cells were grown in culture to 85-90% confluency in RPMI medium supplemented with 10% fetal bovine serum (FBS), 1% glutamine and 1% penicillin/streptomycin. Cells were removed from the culture flask using 0.05% trypsin (passage=4), re-suspended in RPMI medium (density=50×10^6 cells/mL) and were implanted subcutaneously (5×10^6 cells in 100 μL RPMI medium/mouse) into the mammary fat pad area of male nu/nu mice on day 1.
# as §1
# Tumor volume was calculated with (width×width×length)/2 mm^3 formula. Efficacy was determined by tumor growth inhibition (TGI), tumor growth delay (TGD) and survival. Tumor growth inhibition (TGI) is represented as % and calculated as (1−(treated tumor volume/control tumor volume))×100 when the control group mean tumor volume reached ≧1000 mm^3. […]
# murine melanoma tumor = assay: Efficacy and survival in aggressive murine melanoma model at MTD (Example 92); format: in vivo, mouse; conditions: dosed at respective MTD
# Procedure: Thus, the sustained release properties of a particle according to exemplary particle 1 supports less frequent dosing of patients. Methods: Tumor-bearing mice were injected with a particle according to exemplary particle 1 or docetaxel at their respective MTD. See, for example, FIGS. 6a and 6b.
# [3] = Tolerability in normal male C57BL/6 non-tumor-bearing mice (Example 47); format: in vivo, mouse
# Procedure: Treatments were administered intravenously on a q7d×2 schedule, i.e., two treatments seven days apart (the first treatment was on Day one). The study ended on Day 14, six days after the 2nd treatment. Blood was collected for complete blood count (CBC) and serum chemistry. Leg muscles were collected so that nerve degeneration could be assessed from the sciatic nerve.
# [4] = Body weight changes in A2780 tumor-bearing mice (Example 42); format: in vivo, mouse; conditions: Day 36
# Procedure: The stock solution was diluted further with PBS to 1.5 mg/mL (for a dose of 15 mg/kg at 10 mL/kg and 30 mg/kg at 20 mL/kg). This formulation was made within 30 minutes of administration to mice.
# The treatments were administered 2 times, on Day 8 and Day 15 (weekly×2 injections) for n=8 mice per group. […] On Day 50, the study was ended for all remaining mice. When removed from the study, mice were euthanized by CO2 inhalation.
# [5] = Tolerability in mouse melanoma model B16.F10 (Example 61); format: in vivo; conditions: 15 mg/kg 1/wk×3
# Procedure: The treatments were administered IV into the tail vein at a dose volume of 10 ml/kg, beginning on post-implantation day 5, when the mean tumor volume was ca. 60 mm^3. Animals were monitored for any morbidity and adverse effects three times a week. In addition, body weight and tumor volume were also measured three times a week.
# MDA-MB-435 tumor = assay: MDA-MB-435 breast xenograft model, delayed treatment (Example 93); conditions: mouse, in vivo
# Source text: See, for example, FIG. 7.
# [6] = mouse, in vivo, 17 day post-implantation
# Procedure: The stock solution was diluted further with PBS to 0.6, 1.5, 3, 4.5 and 6 mg/mL (for a corresponding dose of 6, 15, 30, 45 and 60 mg/kg) so that all the groups received the same amount of ethanol, polysorbate 80, water and PBS. […] 5) PEGylated O-acetyl-5050-PLGA nanoparticle vehicle at the highest concentration of 6 mg/mL.
# The treatments were administered IV into the tail vein at a dose volume of 10 mL/kg, beginning on post-implantation Day 5, when the mean tumor volume was 55 mm^3. The treatments were administered 4 times, on Days 5, 8, 12 and 15 (biweekly×4 injections). On Day 17 post-tumor implantation, mice were euthanized by CO2 inhalation according to the procedure guideline. Blood was collected by cardiac puncture and put into ethylenediaminetetraacetic acid (EDTA) or serum separation blood collection tubes. Whole blood was analyzed on the day of collection for CBC analyses. After the blood clotted and was centrifuged, serum was frozen immediately on dry ice for serum chemistry analyses.
# Tolerability was determined by changes in body weight, expressed as a percent of the initial body weight on post-implantation Day 5. […] Other indices of toxicity, complete blood count (CBC) and serum chemistry were determined from blood collected from animals that were euthanized on Day 17 by CO2 inhalation, according to the procedure guideline.
# B16.F10 tumor [7] = assay: Efficacy in B16.F10 murine melanoma model (Example 43); format: in vivo, mouse
# Procedure: 7) PEGylated docetaxel-5050 PLGA-β-acetyl nanoparticles (mPEG(5k)-PLGA at 40 wt %) administered at a dose of 15 mg/kg. Refer to table for detailed description of formulations.
# Tumor volume was calculated with the following equation: (width×width×length)/2 mm^3.
# SK-OV-3 tumor = assay: In vivo efficacy, SK-OV-3 ovarian human xenograft model (Example 45); set-up: species or system human (in CD-1 nude mice)
# Procedure: SK-OV-3 cells were grown in culture to confluency in RPMI medium containing 10% FBS and 1% penicillin/streptomycin and then resuspended in RPMI (passage 4) for implantation into mice. This suspension of SK-OV-3 cells (density=30×10^6 cells/mL) was implanted into the mammary gland of female CD-1 nude mice on Day 1. […]
# [8] = Tolerability in ADR-RES tumor-bearing mice (Example 59); format: in vivo, mouse
# Procedure: The treatments were administered IV into the tail vein at a dose volume of 10 and 20 mL/kg for 30 and 60 mg/kg respectively, beginning on post-implantation day 47, when the mean tumor volume was ca. 150 mm^3. Body weight and tumor volume were measured for three times a week during the dosing period and twice a week thereafter. In addition, animals were also monitored for any morbidity and adverse effects for three times a week during the dosing period and twice a week thereafter.
# Tumor volume was calculated with (width×width×length)/2 mm^3 formula. […] Tumor growth inhibition (TGI) is represented as % and calculated as (1−(treated tumor volume/control tumor volume))×100 when the control group mean tumor volume reached ≧1000 mm^3. Tumor growth delay (TGD) is calculated by subtracting the day when the vehicle treated group reached the maximum tumor size 1000 mm^3 from the day when the treatment group tumor size reached 1000 mm^3.
# B16.F10 tumor [9] = assay: In vivo efficacy, B16.F10 mouse model of melanoma (Example 39)
# Procedure: The treatments were administered on days 5, 8, and 12 (biweekly×3 injections) post tumor implantation. Health status of the animals was monitored and tumor size was measured three times a week. […] Tumors from each animal were dissected and tumor size was measured. Tumor volume was calculated using the formula: (width×width×length)/2 mm^3.
# B 16.F10 cells = assay: CellTiter-Glo Luminescent Cell Viability Assay, cytotoxic effect of nanoparticles; format: cell-based, mouse; conditions: 24, 48 and 72 hours
# Procedure: B 16.F10 cells, grown to 85-90% confluency in 150 cm^2 flasks (passage<30), were resuspended in media (MEM-alpha, 10% HI-FBS, lx antibiotic-antimycotic) and added to 96-well opaque-clear bottom plates at a concentration of 1500 cells/well in 200 μL/well. The cells were incubated at 37° C. with 5% CO2 for 24 hours. The following day, serial dilutions of 2× concentrated particles and 2× concentrated free drug were made in 12-well reservoirs with media to specified concentrations. The media in the plates was replaced with 100 μL of fresh media and 100 μL of the corresponding serially diluted drug. Three sets of plates were prepared with duplicate treatments. Following 24, 48 and 72 hours of incubation at 37° C. with 5% CO2, the media in the plates was replaced with 100 μL of fresh media and 100 μL of CTG solution, and then incubated for 5 minutes on a plate shaker at room temperature set to 450 rpm and allowed to rest for 15 minutes. Viable cells were measured by luminescence using a microtiter plate reader. The data was plotted as % viability vs. concentration and standardized to untreated cells.
# [10] = large tumor group, 30 mg/kg 1/wk×2
# [11] = large tumor group, 60 mg/kg 1/wk×2
# [12] = small tumor group, 30 mg/kg 1/wk×2
# [13] = small tumor group, 60 mg/kg 1/wk×2
compound,measurement,setting,value
"CC(=O)O[C@@]12CO[C@@H]1C[C@H](O)[C@@]1(C)C(=O)[C@H](O)C3=C(C)[C@@H](OC(=O)[C@H](O)[C@@H](NC(=O)OC(C)(C)C)c4ccccc4)C[C@@](O)([C@@H](OC(=O)c4ccccc4)[C@H]21)C3(C)C [Free docetaxel, docetaxel]",tumor growth inhibition (TGI),HCT-116 tumor,88%
same,TGD,HCT-116 tumor; end point 1000 mm^3,22 days
same,Maximum body weight loss,[1]; [10],19%
same,hind limb paralysis,[1]; [10],did not cause any significant body weight loss or hind limb paralysis
same,Maximum body weight loss,[1]; [11],significant body weight loss
same,hind limb paralysis,[1]; [11],severe hind limb paralysis
same,Maximum body weight loss,[1]; [12],18%
same,hind limb paralysis,[1]; [12],did not cause any significant body weight loss or hind limb paralysis
same,Maximum body weight loss,[1]; [13],significant body weight loss
same,hind limb paralysis,[1]; [13],severe hind limb paralysis
same,known maximum tolerated dose (MTD),[2],30 mg/kg
same,tumor shrinkage,H1299 tumor,no tumor shrinkage
same,tumor growth with every other week dosing,murine melanoma tumor,not sufficient to suppress tumor growth
same,Ataxia,[3]; 30 mg/kg q7d×2,0%
same,Lymphocyte mean,"[3]; 30 mg/kg q7d×2, Day 14",4350 cells/A
same,Neutrophil mean,"[3]; 30 mg/kg q7d×2, Day 14",556 cells/A
same,Ataxia,[3]; 45 mg/kg q7d×2,20%
same,Lymphocyte mean,"[3]; 45 mg/kg q7d×2, Day 14",6780 cells/A
same,Neutrophil mean,"[3]; 45 mg/kg q7d×2, Day 14",752 cells/A
same,Ataxia,[3]; 60 mg/kg q7d×2,100%
same,"weight lost after the second treatment, by the end of the study",[3]; 60 mg/kg q7d×2,19%
same,Lymphocyte mean,"[3]; 60 mg/kg q7d×2, Day 14",5590 cells/A
same,Neutrophil mean,"[3]; 60 mg/kg q7d×2, Day 14",470 cells/A
same,effect on serum chemistry,[3]; doses up to 60 mg/kg,did not affect any serum chemistry parameter
same,"body weight, % of initial",[4]; 15 mg/kg,113±11%
same,"body weight, % of initial",[4]; 30 mg/kg,105±9%
same,Maximum body weight loss,[5],2%
same,effect on tumors allowed to grow to 500 mm^3 (delayed treatment),MDA-MB-435 tumor,unable to suppress tumor growth
same,dose up to which no serum chemistry parameter was affected,[6],30 mg/kg
same,tumor growth delay (TGD),"B16.F10 tumor [7]; q3dq4dx3, 15 mg/kg",12 days
same,tumor growth delay (TGD),"B16.F10 tumor [7]; q7dx3, 30 mg/kg",17 days
same,day tumor volume end point reached,"B16.F10 tumor [7]; q14dx2, 60 mg/kg",29 days
same,tumor growth inhibition (TGI),"B16.F10 tumor [7]; q14dx2, 60 mg/kg",71%
same,tumor growth delay (TGD),SK-OV-3 tumor; 15 mg/kg weekly×2,18 days
same,tumor growth delay (TGD),SK-OV-3 tumor; 30 mg/kg weekly×2,42 days
same,Maximum body weight loss,[8]; 30 mg/kg 1/biwk×3,9%
same,hind limb paralysis,[8]; 30 mg/kg 1/biwk×3,did not cause any significant body weight loss (<10%) or hind limb paralysis
same,Maximum body weight loss,[8]; 30 mg/kg 1/wk×2,6%
same,hind limb paralysis,[8]; 30 mg/kg 1/wk×2,did not cause any significant body weight loss (<10%) or hind limb paralysis
same,Maximum body weight loss,[8]; 60 mg/kg 1/biwk×3,21%
same,hind limb paralysis,[8]; 60 mg/kg 1/biwk×3,severe hind limb paralysis
same,Maximum body weight loss,[8]; 60 mg/kg 1/wk×2,23%
same,hind limb paralysis,[8]; 60 mg/kg 1/wk×2,hind limb paralysis after the 2nd injection followed by recovery
"CC(=O)O[C@H]1C(=O)[C@@]2(C)[C@H]([C@H](OC(=O)c3ccccc3)[C@]3(O)C[C@H](OC(=O)[C@H](O)[C@@H](NC(=O)c4ccccc4)c4ccccc4)C(C)=C1C3(C)C)[C@]1(OC(C)=O)CO[C@@H]1C[C@@H]2O [Free paclitaxel, paclitaxel]",Day-17 TGI,"B16.F10 tumor [9]; 6 mg/kg IV days 5, 8, 12",57%
same,Day-17 TGI,"B16.F10 tumor [9]; 15 mg/kg IV days 5, 8, 12",83%
"OC[C@H]1O[C@@](CO)(O[C@H]2O[C@H](CO)[C@@H](O)[C@H](O)[C@H]2O)[C@@H](O)[C@@H]1O [Sucrose, sucrose]",Recon. Solution Appearance,"nanoparticles A, sucrose cycle, lyoprotectant 100 mg/mL, polymer 31.25 mg/mL, 3.2:1",cloudy
"OC[C@H]1O[C@@H]2O[C@H]3[C@H](O)[C@@H](O)[C@@H](O[C@H]4[C@H](O)[C@@H](O)[C@@H](O[C@H]5[C@H](O)[C@@H](O)[C@@H](O[C@H]6[C@H](O)[C@@H](O)[C@@H](O[C@H]7[C@H](O)[C@@H](O)[C@@H](O[C@H]8[C@H](O)[C@@H](O)[C@@H](O[C@H]1[C@H](O)[C@H]2O)O[C@@H]8CO)O[C@@H]7CO)O[C@@H]6CO)O[C@@H]5CO)O[C@@H]4CO)O[C@@H]3CO [β-CD, β-cyclodextrin]",solubility of the cyclodextrin in the formulation,40 mg/mL,Beta-CD is not soluble at this
bis(docetaxel) glutamate-5050 PLGA-O-acetyl,growth inhibition of B 16.F10 cells,B 16.F10 cells,inhibited the growth of B 16.F10 cells in a dose and time dependent manner
docetaxel-5050 PLGA-O-acetyl,growth inhibition of B 16.F10 cells,B 16.F10 cells,inhibited the growth of B 16.F10 cells in a dose and time dependent manner
doxorubicin 5050 PLGA amide,growth inhibition of B 16.F10 cells,B 16.F10 cells,inhibited the growth of B 16.F10 cells in a dose and time dependent manner
paclitaxel-5050 PLGA-O-acetyl,growth inhibition of B 16.F10 cells,B 16.F10 cells,inhibited the growth of B 16.F10 cells in a dose and time dependent manner
